Where two headings read alike, the source gives them in different places.
What was measured:
[1] = biological target: T1, Human dihydrofolate reductase (hDHFR) (Homo sapiens, UniProt P00374); test: Inhibition of human dihydrofolate reductase (Ki); type: biochemical; conditions: human DHFR; hydrochloride salts
T1 sequence (P00374 1-187): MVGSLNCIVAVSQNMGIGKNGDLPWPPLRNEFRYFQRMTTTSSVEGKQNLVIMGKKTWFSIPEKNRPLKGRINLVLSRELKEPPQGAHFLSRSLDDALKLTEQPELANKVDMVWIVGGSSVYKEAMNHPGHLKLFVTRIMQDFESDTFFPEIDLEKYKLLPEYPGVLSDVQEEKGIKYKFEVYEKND

[2] = system: P. falciparum TM4/8.2 (wild type); test: microbe, parasite or virus in culture; type: cell-based, Plasmodium falciparum; conditions: read-out: IC50 P. falciparum TM4/8.2 (WT)
From the text: (§1) In Vitro Antimalarial Activites Against P. falciparum and Cytotoxicity Towards Mammalian Cells (Vero Cells)

[3] = system: P. falciparum V1/S (N51I + C59R + S108 + I164L); test: microbe, parasite or virus in culture; type: cell-based, Plasmodium falciparum; conditions: read-out: IC50 P. falciparum V1/S
From the text: as §1

[4] = system: Vero cells; test: in vitro; conditions: read-out: Cytotoxicity against Vero cells (IC50); Vero cells
From the text: as §1

[5] = biological target: wild type (WT) pfDHFR (Plasmodium falciparum, UniProt P13922, N108S/R59C); test: Inhibition of wild type pfDHFR (Ki); type: biochemical
Protocol: (§2) The synthesized 2,4-diamino-6-ethylpyrimdine derivatives as the hydrochloride salts were tested for the activities against Plasmodium falciparum (P. falciparum) according to the standard methods. These include the inhibition of dihydrofolate reductase (DHFR) enzymes of P. falciparum including, wild type (WT) and quadruple mutants (N51IC59RS108NI164L) (QM). The inhibition was expressed as inhibition constants (Ki) in nano molar (nM).

[6] = biological target: quadruple mutant N51I + C59R + S108N + I164L (QM) pfDHFR (Plasmodium falciparum, UniProt P13922, I164L/N51I); test: Inhibition of quadruple mutant pfDHFR (Ki); type: biochemical
Protocol: as §2

[7] = in vitro; conditions: African green monkey
From the text: as §1

[8] = Plasmodium falciparum, in vitro, wild-type strain TM4/8.2
[9] = Plasmodium falciparum, in vitro, quadruple mutant strain V1/S

Sequence of quadruple mutant N51I + C59R + S108N + I164L (QM) pfDHFR (P13922 whole entry N51I/I164L): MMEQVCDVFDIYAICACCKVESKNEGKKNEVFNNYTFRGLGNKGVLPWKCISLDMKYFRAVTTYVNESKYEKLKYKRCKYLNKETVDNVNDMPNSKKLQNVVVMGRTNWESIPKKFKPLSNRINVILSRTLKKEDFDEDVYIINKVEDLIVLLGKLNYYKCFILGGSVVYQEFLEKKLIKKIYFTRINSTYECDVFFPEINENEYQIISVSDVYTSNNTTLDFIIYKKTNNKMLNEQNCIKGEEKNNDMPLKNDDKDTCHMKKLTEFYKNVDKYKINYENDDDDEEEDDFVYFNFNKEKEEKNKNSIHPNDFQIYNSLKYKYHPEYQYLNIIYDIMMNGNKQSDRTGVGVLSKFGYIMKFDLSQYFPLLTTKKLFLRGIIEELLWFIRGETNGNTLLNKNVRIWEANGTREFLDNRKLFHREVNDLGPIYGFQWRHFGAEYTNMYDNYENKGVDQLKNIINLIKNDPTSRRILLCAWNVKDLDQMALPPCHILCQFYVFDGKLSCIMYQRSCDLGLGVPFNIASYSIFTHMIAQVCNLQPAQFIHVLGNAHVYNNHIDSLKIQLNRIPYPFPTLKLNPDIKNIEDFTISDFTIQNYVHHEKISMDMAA
Sequence of wild type (WT) pfDHFR (P13922 whole entry R59C/N108S): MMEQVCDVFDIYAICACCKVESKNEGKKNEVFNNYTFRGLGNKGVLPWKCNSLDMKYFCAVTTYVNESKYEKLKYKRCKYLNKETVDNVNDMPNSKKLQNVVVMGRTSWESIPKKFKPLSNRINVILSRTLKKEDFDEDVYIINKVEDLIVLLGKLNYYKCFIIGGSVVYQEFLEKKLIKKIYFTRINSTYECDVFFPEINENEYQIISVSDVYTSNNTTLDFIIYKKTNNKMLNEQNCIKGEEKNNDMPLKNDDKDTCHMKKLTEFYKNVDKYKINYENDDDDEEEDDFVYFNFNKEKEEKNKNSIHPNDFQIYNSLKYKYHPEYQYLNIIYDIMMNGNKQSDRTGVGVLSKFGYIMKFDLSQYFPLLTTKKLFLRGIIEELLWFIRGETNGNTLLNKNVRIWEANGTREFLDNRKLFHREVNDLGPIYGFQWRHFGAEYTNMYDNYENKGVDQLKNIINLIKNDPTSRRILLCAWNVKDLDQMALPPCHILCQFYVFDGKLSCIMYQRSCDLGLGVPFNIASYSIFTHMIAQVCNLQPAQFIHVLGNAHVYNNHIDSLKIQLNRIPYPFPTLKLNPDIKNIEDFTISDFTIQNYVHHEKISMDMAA

| Compound | Ki [1] [µM] | IC50 [2] [µM] | IC50 ([3]; in vitro, quadruple mutant strain V1/S) [µM] | IC50 [4] [µM] | Ki [5] [µM] | Ki [6] [µM] | IC50 [2, 8] [µM] | IC50 [3, 9] [µM] | IC50 [7] [µM] | melting point [°C] | IC50 ([2]; Plasmodium falciparum) [µM] | IC50 ([3]; Plasmodium falciparum) [µM] | Ki hDHFR [1] |
| --- | --- | --- | --- | --- | --- | --- | --- | --- | --- | --- | --- | --- | --- |
| CCc1nc(N)nc(N)c1OCCCOc1ccccc1CCC(=O)O [Compound P218, reference compound] | 0.0174 ± 0.0038 | 0.0046 ± 0.0019 | 0.056 ± 0.02 | > 10 |  |  |  |  |  |  |  |  |  |
| CCc1nc(N)nc(N)c1OCCCc1cc(-c2cccc(C(=O)O)c2)no1.Cl [Compound 49, 2,4-diamino-6-ethyl-5-(3-(3-(3-(carboxy)phenyl)isoxazol-5-yl)propoxy)pyrimidine Hydrochloride] | 0.0126 ± 0.00143 |  |  |  | 0.00019 ± 2e-05 | 0.00029 ± 1e-05 | 0.007 ± 0.0015 | 0.13 ± 0.04 | > 100 | 219 to 220.5 |  |  |  |
| CCc1nc(N)nc(N)c1OCc1csc(-c2cccc(C(=O)O)c2)n1.Cl [Compound 66, 2,4-diamino-6-ethyl-5-((2-(3-(carboxy)phenyl)thiazol-4-yl)methoxy)pyrimidine Hydrochloride] | 0.102 ± 0.00526 |  |  |  | 0.00086 ± 0.0001 | 0.0367 ± 0.00479 | 2.17 ± 0.54 | > 10 | > 10 | 217.5 to 219 |  |  |  |
| CCc1nc(N)nc(N)c1-c1cn(-c2cccc(C(=O)O)c2)nn1.Cl [Compound 2, 2,4-diamino-6-ethyl-5-(1-(3-(carboxy)phenyl)-1H-1,2,3-triazol-4-yl)pyrimidine Hydrochloride] | > 100 |  |  |  | 1.03 ± 0.0893 | 6.65 ± 0.409 | > 10 | > 10 | > 10 | 205 to 207 |  |  |  |
| CCc1nc(N)nc(N)c1OCc1cn(-c2cccc(C(=O)O)c2)nn1.Cl [Compound 16, 2,4-diamino-6-ethyl-5-((1-(3-(carboxy)phenyl)-1H-1,2,3-triazol-4-yl)methoxy)pyrimidine Hydrochloride] | 0.817 ± 0.145 |  |  |  | 0.00027 ± 3e-05 | 0.00618 ± 0.0006 | 0.6 ± 0.24 | > 25 | > 25 | 197.5 to 199.5 |  |  |  |
| CCc1nc(N)nc(N)c1OCc1coc(-c2ccc(OCC(=O)O)cc2)n1 [Compound 57] | 0.716 ± 0.0783 |  |  |  | 0.00084 ± 8e-05 | 0.078 ± 0.00644 | 0.73 ± 0.17 | > 50 | > 50 |  |  |  |  |
| CCc1nc(N)nc(N)c1OCc1cn(-c2cccc([N+](=O)[O-])c2)nn1 [Compound 14] | > 500 |  |  |  | 0.00862 ± 0.00115 | 0.237 ± 0.0417 | 3.42 ± 0.61 | 4.43 ± 1.13 | > 50 |  |  |  |  |
| CCc1nc(N)nc(N)c1-c1cn(CCOc2ccc(Cl)cc2)nn1 [Compound 9] | 1.67 ± 0.0595 |  |  |  | 0.00114 ± 6e-05 | 0.0108 ± 0.00102 |  |  | 47.4 ± 11.6 |  | 2.24 ± 0.6 | 15.9 ± 5.63 |  |
| CCc1nc(N)nc(N)c1OCc1cn(-c2cccc(C(=O)OC)c2)nn1 [Compound 15] |  |  |  |  | 0.00185 ± 0.00036 | 0.208 ± 0.0166 | 0.73 ± 0.23 | 17.6 ± 1.5 | > 50 |  |  |  | High |
| CCc1nc(N)nc(N)c1OCc1csc(-c2ccc(F)cc2)n1 [Compound 69] | 0.318 ± 0.0297 |  |  |  | 0.0009 ± 0.00018 | 0.0456 ± 0.00468 | 0.79 ± 0.38 | > 25 | > 25 |  |  |  |  |
| CCc1nc(N)nc(N)c1OCCc1cn(Cc2ccc(O)cc2)nn1 [Compound 30] |  |  |  |  | 0.00886 ± 0.0008 | 0.756 ± 0.0626 | 12.4 ± 4.71 | > 50 | > 50 |  |  |  | High |
| CCc1nc(N)nc(N)c1OCc1csc(-c2ccc(OCC(=O)O)cc2)n1 [Compound 73] | 0.357 ± 0.0344 |  |  |  | 0.00065 ± 0.00014 | 0.0289 ± 0.00256 | 0.041 ± 0.006 | > 50 | > 50 |  |  |  |  |

— US11028072B2, “2,4-diamino-6-ethylpyrimidine derivatives with antimalarial activities against Plasmodium falciparum” (National Science and Technology Development Agency, priority 2015, dated 2021)
